Data: patent US20130096160A1, “ARYLTHIAZOLYL PIPERIDINES AND RELATED COMPOUNDS AS MODULATORS OF SURVIVAL MOTOR NEURON (SMN) PROTEIN PRODUCTION” (Secretary, Department of Health and Human Services, priority 2010, published 2013)

Legend:
SMN1-luciferase reporter = SMN1-luciferase reporter control cell line; assay type: cell-based, human; conditions: SMN1-luc reporter, FIG. 1
Text: A cell-based quantitative high throughput screening (qHTS) assay is used to identify compounds able to increase SMN production. The assay uses a SMN2-luciferase reporter to determine if exon 7 of the SMN gene is expressed, which correlates with increased full-length SMN production from the SMN2 gene. As controls, a homologue SMN1-luciferase reporter cell line looks for variations in expression of the SMN1 gene and a cell line with just the luciferase reporter looks at the capacity of the compounds to inhibit luciferase. In addition, increments in SMN production by lead compounds were confirmed by Western-Blot analysis using SMA patient fibroblasts.
The SMN reporters used herein are modified from those previously described (M. L. Zhang, C. L. Lorson, E. J. Androphy and J. Zhou, An in vivo reporter system for measuring increased inclusion of exon 7 in SMN2 mRNA: potential therapy of SMA, Gene Ther 8 (2001), pp. 1532-1538.)
The sequence of the SMN1 reporter vector used herein is given in SEQ ID NO.:1, while that of the SMN2 reporter vector is given in SEQ ID NO.:2. […]

CaCo-2 cells = assay: in vitro; assay type: in vitro ADME
Method: CaCo-2 cells grown in tissue culture flasks are trypsinized, suspended in medium, and the suspensions are applied to wells of a collagen-coated BioCoat Cell Environment in 24-well format (BD Biosciences) at 24,500 cells per well. The cells are allowed to grow and differentiate for three weeks, feeding at 2-day intervals.
For Apical to Basolateral (A->B) permeability, the test agent is added at 50 μM to the apical (A) side and amount of permeation is determined on the basolateral (B) side; for Basolateral to Apical (B>A) permeability, the test agent is added at 50 μM to the B side and the amount of permeation is determine on the A side. The A-side buffer contains 100 μM Lucifer yellow dye, in Transport Buffer (1.98 g/L glucose in 10 mM HEPES, 1× Hank's Balanced Salt Solution) pH 6.5, and the B-side buffer is Transport Buffer, pH 7.4. CaCo-2 cells are incubated with these buffers for 2 h., and the receiver side buffer is removed for analysis by liquid chromatography-mass spectrometry (LC/MS/MS).
Additionally, several control compounds are tested in the identical assay.
To verify that CaCo-2 cell monolayers are properly formed, aliquots of the cell buffers are analyzed by fluorescence to determine the transport of the impermeable dye Lucifer Yellow.
Data are expressed as permeability (Papp): […]
where dQ/dt is the rate of permeation, C0 is the initial concentration of test agent, and A is the area of the monolayer.
In bidirectional permeability studies, the asymmetry index (AI) or efflux ratio is also calculated:
An AI>1 indicated a potential substrate for PGP or other active transporters.
Samples are analyzed by LC/MS/MS using either an Agilent 6410 mass spectrometer coupled with an Agilent 1200 high performance liquid chromatography (HPLC) and a CTC PAL chilled autosampler, all controlled by MassHunter software (Agilent), or an ABI2000 mass spectrometer coupled with an Agilent 1100 HPLC and a CTC PAL chilled autosampler, all controlled by Analyst software (ABI). After separation on a C18 reverse phase HPLC column (Agilent, Waters, or equivalent) using an acetonitrile-water gradient system, peaks are analyzed by mass spectrometry (MS) using electrospray ionization (ESI) in multiple reaction monitoring (MRM) mode.
The signal is optimized for each compound by ESI positive or negative ionization mode. A MS2 selected ion monitoring (SIM) scan is used to optimize the precursor ion and a product ion analysis is used to identify the best fragment for analysis and to optimize the collision energy.

- Caco-2 permeability (in words) (CaCo-2 cells): highly permeable
- Pgp substrate (in words) (CaCo-2 cells): no indication of being a Pgp substrate
- mean A->B Papp (CaCo-2 cells): 32.6 10^−6 cm s^−1
- mean B->A Papp (CaCo-2 cells): 12.0 10^−6 cm s^−1
SMILES: NC(=O)C1CCN(c2nc(-c3ccc(Br)cc3)cs2)CC1 [MLS000698854]
- expression of SMN1 (in words) (SMN1-luciferase reporter): does not affect the expression of SMN1
